Molecules are shown by their SMILES. “Also recorded” adds a separate entry of the source.

What all share (assay type): biochemical
In one test the target is T1, PRMT1 (Homo sapiens, UniProt Q99873).
T1 construct: made in house
Put plainly: SAHH-coupled fluorescence assay, inhibition of PRMT1. The procedure: (§1) A fluorescence-based SAHH-coupled assay was applied to study the inhibition activity of all synthesized compounds on PRMT 1 and 3.
(§2) The PRMT1 methylation assay was performed under the following conditions in a final well volume of 100 μL: 2.5 mM HEPES (pH=7.0), 25 mM NaCl, 25 μM EDTA, 50 μM TCEP, 0.01% Triton X-100, 5 μM SAHH, 0.1 μM PRMT1, 10 μM AdoMet, and 10 μM ThioGlo4. […] The fluorescence signal was monitored on a BMG CLARIOstar microplate reader with excitation at 400 nm and emission at 465 nm for 15 min. Data were processed using GraphPad Prism software 8.0.
(§3) Next, the inhibition activity of the library was investigated for five PRMT members from type I PRMTs.
as §2, with “A fluorescence-based SAHH-coupled assay was applied to determine the inhibition activity of all synthesized compounds on PRMT 1 and 3. The PRMT1” for “The PRMT1”, “software 8.0. All experiments were performed in duplicate.” for “software 8.0.”

The next test deals with T2, PRMT4 (Homo sapiens, UniProt Q86X55).
T2 sequence (Q86X55 1-608): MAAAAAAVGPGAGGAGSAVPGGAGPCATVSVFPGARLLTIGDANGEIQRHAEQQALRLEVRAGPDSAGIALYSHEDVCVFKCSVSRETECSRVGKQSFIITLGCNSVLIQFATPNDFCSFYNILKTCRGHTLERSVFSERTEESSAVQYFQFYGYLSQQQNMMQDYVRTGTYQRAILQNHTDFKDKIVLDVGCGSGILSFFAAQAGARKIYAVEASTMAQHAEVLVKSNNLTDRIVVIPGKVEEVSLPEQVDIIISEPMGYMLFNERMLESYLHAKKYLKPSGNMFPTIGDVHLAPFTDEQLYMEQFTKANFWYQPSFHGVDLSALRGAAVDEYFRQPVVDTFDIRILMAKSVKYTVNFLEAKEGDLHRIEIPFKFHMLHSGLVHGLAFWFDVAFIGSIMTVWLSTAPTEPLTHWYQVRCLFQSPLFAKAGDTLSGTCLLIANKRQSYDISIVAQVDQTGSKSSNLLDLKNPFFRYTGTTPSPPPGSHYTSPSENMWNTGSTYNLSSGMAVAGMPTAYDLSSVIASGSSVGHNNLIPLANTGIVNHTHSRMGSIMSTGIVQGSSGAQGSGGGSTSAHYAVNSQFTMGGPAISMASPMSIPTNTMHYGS
Put plainly: radioactive assay (Reaction Biology Corp.), inhibition of PRMT4. As to the method: as §3
(§4) The PRMT 4, 6 and 8 methylation assays were performed by Reaction Biology corp.

Another test deals with PRMT6 (Homo sapiens, UniProt Q96LA8). Put plainly: radioactive assay (Reaction Biology Corp.), inhibition of PRMT6. As to the method: as §3, §4
Sequence of PRMT6 (Q96LA8 whole entry, species assumed): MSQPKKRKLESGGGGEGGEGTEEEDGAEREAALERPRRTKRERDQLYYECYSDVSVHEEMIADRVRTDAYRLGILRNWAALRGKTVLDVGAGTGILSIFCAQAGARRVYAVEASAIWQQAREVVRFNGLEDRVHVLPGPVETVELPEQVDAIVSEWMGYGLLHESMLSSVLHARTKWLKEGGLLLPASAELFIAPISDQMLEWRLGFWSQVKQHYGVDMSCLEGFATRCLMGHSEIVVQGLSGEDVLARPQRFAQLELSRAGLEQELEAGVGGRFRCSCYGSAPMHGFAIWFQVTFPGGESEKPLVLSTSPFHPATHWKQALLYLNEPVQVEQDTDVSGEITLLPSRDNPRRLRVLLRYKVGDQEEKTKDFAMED
A further test deals with PRMT8 (Homo sapiens, UniProt Q9NR22). Put plainly: radioactive assay (Reaction Biology Corp.), inhibition of PRMT8. The procedure:
as §3, §4

A further test addresses PRMT3 (Homo sapiens, UniProt O60678). Put plainly: SAHH-coupled fluorescence assay, inhibition of PRMT3. More on the design: PRMT3 (residues 211-531) was cloned into the pET28a-MHL expression vector; tag of the pET28a-MHL vector (not described); made in house; host or cells: Escherichia coli BL21(DE3). As to the method:
as §1
The PRMT3 methylation assay was performed under the following conditions in a final well volume of 100 μL: 20 mM Tris (pH=7.5), 0.01% Triton X-100, 5 μM SAHH, 0.25 μM PRMT3, 30 μM AdoMet, and 15 μM ThioGlo4. […] Fluorescence was monitored on a BMG CLARIOstar microplate reader with excitation 380 nm and emission 505 nm. Data were processed by using GraphPad Prism software 8.0. All experiments were performed in duplicate.
as §3
The PRMT3 methylation assay was performed under the following conditions in a final well volume of 100 μL: 20 mM Tris (pH=7.5), 0.01% Triton X-100, 5 μM SAHH, 0.25 μM PRMT3, 30 μM AdoMet, and 15 μM ThioGlo4. […] Fluorescence was monitored on a BMG CLARIOstar microplate reader with excitation 380 nm and emission 505 nm. Data were processed by using GraphPad Prism software 8.0.

Sequence of PRMT8 (Q9NR22 whole entry, species assumed): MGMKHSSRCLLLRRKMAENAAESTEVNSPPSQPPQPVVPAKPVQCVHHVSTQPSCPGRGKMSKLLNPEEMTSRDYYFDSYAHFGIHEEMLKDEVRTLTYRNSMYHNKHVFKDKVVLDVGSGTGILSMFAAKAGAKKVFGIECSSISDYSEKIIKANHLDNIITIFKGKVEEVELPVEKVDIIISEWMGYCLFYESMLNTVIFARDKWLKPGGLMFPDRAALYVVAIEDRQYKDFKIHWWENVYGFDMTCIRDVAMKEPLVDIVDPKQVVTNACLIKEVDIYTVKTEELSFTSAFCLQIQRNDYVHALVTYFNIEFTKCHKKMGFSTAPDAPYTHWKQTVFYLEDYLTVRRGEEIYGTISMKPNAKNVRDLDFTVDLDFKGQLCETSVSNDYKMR
T1 sequence (Q99873 whole entry, species assumed): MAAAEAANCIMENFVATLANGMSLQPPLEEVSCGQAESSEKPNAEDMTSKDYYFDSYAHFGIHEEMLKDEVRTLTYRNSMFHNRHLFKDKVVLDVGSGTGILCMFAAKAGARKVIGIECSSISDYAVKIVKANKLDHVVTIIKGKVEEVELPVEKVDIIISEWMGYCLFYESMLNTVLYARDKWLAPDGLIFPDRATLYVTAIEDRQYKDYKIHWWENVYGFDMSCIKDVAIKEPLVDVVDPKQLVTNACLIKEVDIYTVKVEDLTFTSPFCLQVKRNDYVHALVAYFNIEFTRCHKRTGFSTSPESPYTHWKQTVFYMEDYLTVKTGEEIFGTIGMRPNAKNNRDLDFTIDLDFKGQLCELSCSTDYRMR
Sequence of PRMT3 (O60678 211-531): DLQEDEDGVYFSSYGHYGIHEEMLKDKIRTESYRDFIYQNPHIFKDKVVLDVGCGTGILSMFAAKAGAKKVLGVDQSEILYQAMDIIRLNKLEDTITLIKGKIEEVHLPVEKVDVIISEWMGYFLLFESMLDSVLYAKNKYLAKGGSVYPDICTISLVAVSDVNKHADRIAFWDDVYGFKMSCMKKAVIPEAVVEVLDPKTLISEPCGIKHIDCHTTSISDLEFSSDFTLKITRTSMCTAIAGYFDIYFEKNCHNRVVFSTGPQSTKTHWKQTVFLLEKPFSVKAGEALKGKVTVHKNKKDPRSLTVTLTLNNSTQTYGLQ

What is called inhibition is the change of the read-out against control, counted positive when it falls. For the molecule `Nc1ncnc2c1ncn2[C@@H]1O[C@H](CSCCCNC(=O)NCCCc2ccccc2)[C@@H](O)[C@H]1O` [Compound 7q], the inhibition at 10 µM against PRMT1 is 18%; at PRMT4, 62%; on PRMT6 it was -6%; at PRMT8, 16%; on PRMT3, 5%.
On to `Nc1ncnc2c1ncn2[C@@H]1O[C@H](CSCCCNC(=O)NCCc2ccccc2)[C@@H](O)[C@H]1O` [Compound 7r], for which the inhibition at 10 µM against PRMT1 came to 14%; on PRMT4 it was 47%; on PRMT6, 49%; at PRMT8, 22%; against PRMT3 it was 6%.
As for `N=C(NCCCSC[C@H]1O[C@@H](n2cnc3c(N)ncnc32)[C@H](O)[C@@H]1O)Nc1cccc(F)c1` [Compound 7s], the inhibition at 10 µM against PRMT1 is 23%; at PRMT4, 58%; at PRMT6, 49%; on PRMT8, -12%; at PRMT3, 9%.
Turning to `Nc1ccc(-c2ccc(CNC(=O)NCCSC[C@H]3O[C@@H](n4cnc5c(N)ncnc54)[C@H](O)[C@@H]3O)cc2)cc1` [Compound 8a], the inhibition at 10 µM against PRMT1 worked out at 13%; on PRMT4 it was 40%; at PRMT6 it was 72%; at PRMT8 it was 0%; against PRMT3 it was 3%.
On to `Nc1cccc(-c2ccc(CNC(=O)NCCSC[C@H]3O[C@@H](n4cnc5c(N)ncnc54)[C@H](O)[C@@H]3O)cc2)c1` [Compound 8b], for which the inhibition at 10 µM at PRMT1 amounted to 7%; on PRMT4, 43%; on PRMT6, 79%; on PRMT8, 0%; against PRMT3, 5%.
In the case of `Nc1ncnc2c1ncn2[C@@H]1O[C@H](CSCCNC(=O)NCc2ccc(-c3ccc(O)cc3)cc2)[C@@H](O)[C@H]1O` [Compound 8c], the inhibition at 10 µM at PRMT1 was 21%; on PRMT4 it was 42%; on PRMT6, 82%; on PRMT8 it was 3%; on PRMT3, 10%.
With `Nc1ncnc2c1ncn2[C@@H]1O[C@H](CSCCNC(=O)NCc2ccc(-c3cccc(O)c3)cc2)[C@@H](O)[C@H]1O` [Compound 8d], the inhibition at 10 µM against PRMT1 came to 22%; at PRMT4, 37%; at PRMT6, 88%; on PRMT8, 15%; against PRMT3 it was 9%.
On to `Nc1ncnc2c1ncn2[C@@H]1O[C@H](CSCCNC(=O)NCc2ccc(-c3ccccc3O)cc2)[C@@H](O)[C@H]1O` [Compound 8e], for which the inhibition at 10 µM on PRMT1 was 11%; at PRMT4, 53%; at PRMT6 it was -2%; on PRMT8 it was -2%; against PRMT3, 13%.
For `Nc1ncnc2c1ncn2[C@@H]1O[C@H](CSCCNC(=O)NCc2ccc(-c3cc[nH]n3)cc2)[C@@H](O)[C@H]1O` [Compound 8f], the inhibition at 10 µM at PRMT1 was 27%; on PRMT4, 17%; on PRMT6, -6%; on PRMT8 it was 2%; against PRMT3, 9%.
With `Nc1ncnc2c1ncn2[C@@H]1O[C@H](CSCCNC(=O)NCc2ccc(-c3cn[nH]c3)cc2)[C@@H](O)[C@H]1O` [Compound 8g], the inhibition at 10 µM at PRMT1 worked out at 2%; on PRMT4, 19%; on PRMT6, 5%; on PRMT8, 5%; against PRMT3 it was 10%.
As for `Nc1ncnc2c1ncn2[C@@H]1O[C@H](CSCCNCc2cccc(-c3ccc(Cl)cc3)c2)[C@@H](O)[C@H]1O` [Compound 10a], the inhibition at 10 µM at PRMT1 was determined as 16%; at PRMT4 it was 99%; on PRMT6, 57%; on PRMT8, 71%; at PRMT3, 16%. Further, the “PRMT4 inhibition” value at PRMT4 is “equal potency on PRMT4; also recorded: more potent PRMT4 inhibition activity than SGC8158”.
As to `Nc1ncnc2c1ncn2[C@@H]1O[C@H](CSCCNCc2cccc(-c3ccc(O)cc3)c2)[C@@H](O)[C@H]1O` [Compound 10b], the inhibition at 10 µM is 19% at PRMT1; 100% at PRMT4; 55% at PRMT6; 67% at PRMT8; 1% on PRMT3.
For `Nc1ncnc2c1ncn2[C@@H]1O[C@H](CSCCNCc2cccc(-c3cccc(F)c3)c2)[C@@H](O)[C@H]1O` [Compound 10c], the inhibition at 10 µM against PRMT1 was found to be 11%; on PRMT4 it was 100%; at PRMT6, 49%; at PRMT8, 68%; on PRMT3, 12%.
Regarding `Nc1ncnc2c1ncn2[C@@H]1O[C@H](CSCCNCc2cccc(-c3ccc(C(F)(F)F)cc3)c2)[C@@H](O)[C@H]1O` [Compound 10e], the inhibition at 10 µM is 2% against PRMT1; 99% on PRMT4; 57% at PRMT6; 67% at PRMT8; 15% against PRMT3.
On to `Nc1ncnc2c1ncn2[C@@H]1O[C@H](CSCCNCc2cccc(-c3ccc(F)c(O)c3)c2)[C@@H](O)[C@H]1O` [Compound 10f], for which the inhibition at 10 µM against PRMT1 was 7%; on PRMT4 it was 99%; at PRMT6 it was 54%; at PRMT8, 80%; against PRMT3, 20%.
Taken in the same sequence, the figures for `Nc1ncnc2c1ncn2[C@@H]1O[C@H](CSCCNCc2cccc(-c3cccc4cn[nH]c34)c2)[C@@H](O)[C@H]1O` [Compound 10h] were 1%, 100%, 82%, 58% and 12%.
Taken in the same sequence, the figures for `Nc1ncnc2c1ncn2[C@@H]1O[C@H](CSCCNCc2cccc(-c3cccc(O)c3)c2)[C@@H](O)[C@H]1O` [Compound 10i] were 15%, 100%, 55%, 74% and 13%.
Consider `Nc1ncnc2c1ncn2[C@@H]1O[C@H](CSCCNCc2cccc(-c3ccccc3O)c2)[C@@H](O)[C@H]1O` [Compound 10j], for which the inhibition at 10 µM at PRMT1 turned out to be 25%; at PRMT4, 99%; on PRMT6 it was 43%; on PRMT8, 56%; against PRMT3, 10%.
Take `Nc1ncnc2c1ncn2[C@@H]1O[C@H](CSCCNCc2cccc(-c3ccncc3)c2)[C@@H](O)[C@H]1O` [Compound 10k]: the inhibition at 10 µM against PRMT1 amounted to 15%; at PRMT4, 99%; on PRMT6, 43%; on PRMT8, 69%; on PRMT3, 10%.

Source of the values: patent US20260306527A1, “PRMT INHIBITOR COMPOUNDS AND THE USES THEREOF” (Purdue Research Foundation, priority 2023, published 2026).
